{"source": "patent US20050101595A1", "about": "“N-containing cycloalkyl-substituted amino-thiazole derivatives and pharmaceutical compositions for inhibiting cell proliferation and methods for their use” (PFIZER INC., priority 2003, published 2005)", "key": {"CDK2/Cyclin A": {"molecular_target": "CDK2/Cyclin A (Homo sapiens, UniProt P24941)", "assay": "Inhibition of CDK2/Cyclin A Retinoblastoma Kinase Activity", "type": "biochemical", "conditions": "for Ki: apparent Ki, CDK2/proteolyzed cyclin A, Rb fragment substrate, 25 μM ATP; for CDK2 % Inhibition At 0.03 μM: Table 2", "outline": "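Baculovirus-expressed CDK2 complexed with proteolyzed cyclin A (10 or 19 nM), Rb fragment substrate, 25 μM [32P/33P]ATP, HEPES pH 7.4, 30 °C for 60 or 75 min under initial-rate conditions. Filter capture and phosphorimager readout; apparent Ki fitted to competitive or tight-binding competitive inhibition.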"}, "[1]": {"molecular_target": "human CDK4 and genetically truncated (1-264) cyclin D3 (Homo sapiens, UniProt P11802)", "sequence (P11802 whole entry, the tested form may be a part)": "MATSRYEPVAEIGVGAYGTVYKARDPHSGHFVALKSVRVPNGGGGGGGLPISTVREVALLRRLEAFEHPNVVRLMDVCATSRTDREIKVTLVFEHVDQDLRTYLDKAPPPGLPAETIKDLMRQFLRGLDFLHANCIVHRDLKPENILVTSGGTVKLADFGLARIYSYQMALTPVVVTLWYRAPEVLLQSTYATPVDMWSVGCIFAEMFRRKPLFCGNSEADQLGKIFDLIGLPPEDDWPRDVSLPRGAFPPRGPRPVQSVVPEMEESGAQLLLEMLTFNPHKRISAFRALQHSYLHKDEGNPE", "sequence (P30281 1-264 partner)": "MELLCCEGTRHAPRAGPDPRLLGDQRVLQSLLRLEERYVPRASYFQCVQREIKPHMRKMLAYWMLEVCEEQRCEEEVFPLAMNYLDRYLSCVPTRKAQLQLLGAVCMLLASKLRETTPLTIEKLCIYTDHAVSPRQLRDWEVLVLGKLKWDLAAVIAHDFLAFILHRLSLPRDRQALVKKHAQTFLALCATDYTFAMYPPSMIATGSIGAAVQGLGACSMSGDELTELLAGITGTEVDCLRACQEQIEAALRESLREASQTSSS", "assay": "Inhibition of CDK4/Cyclin D Retinoblastoma Kinase Activity", "type": "biochemical", "conditions": "for Ki: apparent Ki, CDK4/truncated cyclin D3, Rb fragment substrate, 25 μM ATP", "outline": "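Human CDK4/truncated cyclin D3 (1-264) complex from baculovirus-infected insect cells, 5 nM, phosphorylating Rb fragment (residues 386-928, His-tagged) with 25 μM [32/33P]ATP in HEPES pH 7.4, MgCl2, 2% DMSO at 30° C. for 20 min (60 min for tight binders). Filter-captured radioactivity by phosphorimager; apparent Ki from competitive or tight-binding fits.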"}, "HCT-116 cell line": {"system": "HCT-116 cell line", "assay": "Inhibition of cell growth, tetrazolium salt (MTT) assay", "type": "cell-based", "conditions": "for IC50: Homo sapiens, HCT-116, 120 h, MTT, three to five days, read-out: HCT-116 IC50; for HCT-116 % Inhibition at 0.25 μM: 0.25 μM compound", "outline": "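First, cells were seeded in McCoy's 5A medium and held 4 h. Next, inhibitor concentrations in 0.5% (v/v) DMSO were applied for three to five days at 37° C, 5% CO2. Finally, after 4 h with 0.2 mg/mL MTT and medium removal, solubilized formazan was measured at 540 nm.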"}, "[2]": {"conditions": "0.1 μM compound, HCT-116, Table 3"}}, "note": "Where a name gives a salt, the structure may show the parent alone. Read-outs that look alike come from different tables or passages of the source."}
{"compound": "CN1CCN(c2ncc(S(=O)(=O)N3CCC(Nc4nc(N)c(C(=O)c5c(F)cccc5F)s4)CC3)cn2)CC1", "note": "[Example G34, (4-Amino-2-{1-[2-(4-methyl-piperazin-1-yl)-pyrimindine-5-sulfonyl]-piperidin-4-ylamino}-thiazol-5-yl)-(2,6-difluoro-phenyl)-methanone Hydrochloride Salt]", "values": [{"measurement": "Ki", "setting": "CDK2/Cyclin A", "result": 0.82, "unit": "nM"}, {"measurement": "Ki", "setting": "[1]", "result": 0.57, "unit": "nM"}, {"measurement": "IC50", "setting": "HCT-116 cell line; first HCT-116 column (c4)", "result": 40, "unit": "nM"}, {"measurement": "IC50", "setting": "HCT-116 cell line; second HCT-116 column (c5)", "result": 250, "unit": "nM"}]}
{"compound": "Nc1nc(NC2CCN(S(=O)(=O)c3cc(OCC(F)(F)F)ccc3OCC(F)(F)F)CC2)sc1C(=O)c1c(F)cccc1F", "note": "[Example P54]", "values": [{"measurement": "CDK2 % Inhibition at 0.03 μM", "setting": "CDK2/Cyclin A; 0.03 μM compound, Table 3", "result": 17, "unit": "%"}, {"measurement": "CDK4 % Inhibition at 0.03 μM", "setting": "[1]; 0.03 μM compound, Table 3", "result": 34, "unit": "%"}, {"measurement": "HCT-116 % Inhibition at 0.1 μM", "setting": "HCT-116 cell line; [2]", "result": 22, "unit": "%"}, {"measurement": "HCT-116 % Inhibition at 0.25 μM", "setting": "HCT-116 cell line; HCT-116, Table 3", "result": 23, "unit": "%"}]}
{"compound": "Cc1ccccc1C(=O)N1CCC(Nc2nc(N)c(C(=O)c3c(F)cccc3F)s2)CC1", "note": "[Example Q17]", "values": [{"measurement": "CDK2 % Inhibition at 0.03 μM", "setting": "CDK2/Cyclin A; 0.03 μM compound, Table 4", "result": "−11", "unit": "%"}, {"measurement": "CDK4 % Inhibition at 0.03 μM", "setting": "[1]; 0.03 μM compound, Table 4", "result": 45, "unit": "%"}, {"measurement": "HCT-116 % Inhibition at 0.1 μM", "setting": "HCT-116 cell line; 0.1 μM compound, HCT-116, Table 4", "result": 2, "unit": "%"}, {"measurement": "HCT-116 % Inhibition at 0.25 μM", "setting": "HCT-116 cell line; HCT-116, Table 4", "result": 34, "unit": "%"}]}
{"compound": "Cc1ccc(C(=O)N2CCC(Nc3nc(N)c(C(=O)c4c(F)cccc4F)s3)CC2)cc1C", "note": "[Example R141]", "values": [{"measurement": "CDK2 % Inhibition at 0.03 μM", "setting": "CDK2/Cyclin A; at 0.03 μM", "result": 68, "unit": "%"}, {"measurement": "CDK4 % Inhibition at 0.03 μM", "setting": "[1]; at 0.03 μM", "result": 82, "unit": "%"}, {"measurement": "HCT-116 % Inhibition at 0.1 μM", "setting": "HCT-116 cell line; HCT-116 cells, at 0.1 μM", "result": 33, "unit": "%"}, {"measurement": "HCT-116 5 Inhibition at 0.25 μM", "setting": "HCT-116 cell line; HCT-116 cells", "result": 77}]}
{"compound": "CC(C)c1ccc(S(=O)(=O)N2CCC(Nc3nc(N)c(C(=O)c4c(F)cccc4F)s3)CC2)cc1", "note": "[Example P31]", "values": [{"measurement": "CDK2 % Inhibition at 0.03 μM", "setting": "CDK2/Cyclin A; 0.03 μM compound, Table 3", "result": 40, "unit": "%"}, {"measurement": "CDK4 % Inhibition at 0.03 μM", "setting": "[1]; 0.03 μM compound, Table 3", "result": 50, "unit": "%"}, {"measurement": "HCT-116 % Inhibition at 0.1 μM", "setting": "HCT-116 cell line; [2]", "result": 3, "unit": "%"}, {"measurement": "HCT-116 % Inhibition at 0.25 μM", "setting": "HCT-116 cell line; HCT-116, Table 3", "result": 16, "unit": "%"}]}
{"compound": "Nc1nc(NC2CCN(S(=O)(=O)c3ccc(OCCO)nc3)CC2)sc1C(=O)c1c(F)cccc1F", "note": "[Example H4, 1-(4-Amino-2-{1-[6-(2-hydroxy-ethoxy)-pyridine-3-sulfonyl]-piperidin-4-ylamino}-thiazol-5-yl)-1-(2,6-difluoro-phenyl)-methanone]", "values": [{"measurement": "Ki", "setting": "CDK2/Cyclin A", "result": 0.7, "unit": "nM"}, {"measurement": "Ki", "setting": "[1]", "result": 2.5, "unit": "nM"}, {"measurement": "IC50", "setting": "HCT-116 cell line; first HCT-116 column (c4)", "result": 100, "unit": "nM"}, {"measurement": "IC50", "setting": "HCT-116 cell line; second HCT-116 column (c5)", "result": 500, "unit": "nM"}]}
{"compound": "CCOC(=O)C(NC(=O)N1CCC(Nc2nc(N)c(C(=O)c3c(F)cccc3F)s2)CC1)C(C)C", "note": "(stereo not drawn) [Example O74]", "values": [{"measurement": "CDK2 % Inhibition At 0.03 μM", "setting": "CDK2/Cyclin A; 0.03 μM compound", "result": 35, "unit": "%"}, {"measurement": "CDK4 % Inhibition at 0.03 μM", "setting": "[1]; 0.03 μM compound, Table 2", "result": 102, "unit": "%"}, {"measurement": "HCT-116 % Inhibition at 0.25 μM", "setting": "HCT-116 cell line; HCT-116, Table 2", "result": 34, "unit": "%"}]}
{"compound": "Nc1nc(NC2CCN(C(=O)c3cc(Cl)cc(Cl)c3)CC2)sc1C(=O)c1c(F)cccc1F", "note": "[Example R134]", "values": [{"measurement": "CDK2 % Inhibition at 0.03 μM", "setting": "CDK2/Cyclin A; at 0.03 μM", "result": 29, "unit": "%"}, {"measurement": "CDK4 % Inhibition at 0.03 μM", "setting": "[1]; at 0.03 μM", "result": 51, "unit": "%"}, {"measurement": "HCT-116 % Inhibition at 0.1 μM", "setting": "HCT-116 cell line; HCT-116 cells, at 0.1 μM", "result": 45, "unit": "%"}, {"measurement": "HCT-116 5 Inhibition at 0.25 μM", "setting": "HCT-116 cell line; HCT-116 cells", "result": 95}]}
{"compound": "CCCCOc1ccc(S(=O)(=O)N2CCC(Nc3nc(N)c(C(=O)c4c(F)cccc4F)s3)CC2)cc1", "note": "[Example P49]", "values": [{"measurement": "CDK2 % Inhibition at 0.03 μM", "setting": "CDK2/Cyclin A; 0.03 μM compound, Table 3", "result": 36, "unit": "%"}, {"measurement": "CDK4 % Inhibition at 0.03 μM", "setting": "[1]; 0.03 μM compound, Table 3", "result": 54, "unit": "%"}, {"measurement": "HCT-116 % Inhibition at 0.1 μM", "setting": "HCT-116 cell line; [2]", "result": 10, "unit": "%"}, {"measurement": "HCT-116 % Inhibition at 0.25 μM", "setting": "HCT-116 cell line; HCT-116, Table 3", "result": 32, "unit": "%"}]}
{"compound": "CN(CCO)c1ccc(S(=O)(=O)N2CCC(Nc3nc(N)c(C(=O)c4c(F)cccc4F)s3)CC2)cn1", "note": "[Example G10]", "values": [{"measurement": "Ki", "setting": "CDK2/Cyclin A", "result": "< 1", "unit": "nM"}, {"measurement": "Ki", "setting": "[1]", "result": 1.2, "unit": "nM"}, {"measurement": "IC50", "setting": "HCT-116 cell line; first HCT-116 column (c4)", "result": 670, "unit": "nM"}, {"measurement": "IC50", "setting": "HCT-116 cell line; second HCT-116 column (c5)", "result": "> 5000", "unit": "nM"}]}
{"compound": "Cn1nc(C(C)(C)C)cc1C(=O)N1CCC(Nc2nc(N)c(C(=O)c3c(F)cccc3F)s2)CC1", "note": "[Example R60]", "values": [{"measurement": "CDK2 % Inhibition at 0.03 μM", "setting": "CDK2/Cyclin A; at 0.03 μM", "result": 45, "unit": "%"}, {"measurement": "CDK4 % Inhibition at 0.03 μM", "setting": "[1]; at 0.03 μM", "result": 69, "unit": "%"}, {"measurement": "HCT-116 % Inhibition at 0.1 μM", "setting": "HCT-116 cell line; HCT-116 cells, at 0.1 μM", "result": 0, "unit": "%"}, {"measurement": "HCT-116 5 Inhibition at 0.25 μM", "setting": "HCT-116 cell line; HCT-116 cells", "result": 29}]}
{"compound": "N#Cc1ccc(S(=O)(=O)N2CCC(Nc3nc(N)c(C(=O)c4c(F)cccc4F)s3)CC2)cc1", "note": "[Example F18, 4-{4-[4-Amino-5-(2,6-difluoro-benzoyl)-thiazol-2-ylamino]-piperidine-1-sulfonyl}benzonitrile]", "values": [{"measurement": "Ki", "setting": "CDK2/Cyclin A", "result": "< 1", "unit": "nM"}, {"measurement": "Ki", "setting": "[1]", "result": 0.98, "unit": "nM"}, {"measurement": "IC50", "setting": "HCT-116 cell line; first HCT-116 column (c4)", "result": 300, "unit": "nM"}, {"measurement": "IC50", "setting": "HCT-116 cell line; second HCT-116 column (c5)", "result": 500, "unit": "nM"}]}
{"compound": "CC(C)S(=O)(=O)N1CCC(Nc2nc(N)c(C(=O)c3c(F)cccc3F)s2)CC1", "note": "[Example F11, 1-{4-Amino-2-[1-(propane-2-sulfonyl)-piperidin-4-ylamino]-thiazol-5-yl}-1-(2,6-difluoro-phenyl)-methanone]", "values": [{"measurement": "Ki", "setting": "CDK2/Cyclin A", "result": 1.6, "unit": "nM"}, {"measurement": "Ki", "setting": "[1]", "result": 1.1, "unit": "nM"}, {"measurement": "IC50", "setting": "HCT-116 cell line; first HCT-116 column (c4)", "result": 180, "unit": "nM"}, {"measurement": "IC50", "setting": "HCT-116 cell line; second HCT-116 column (c5)", "result": 450, "unit": "nM"}]}
{"compound": "COC(=O)c1cccc(NC(=O)N2CCC(Nc3nc(N)c(C(=O)c4c(F)cccc4F)s3)CC2)c1", "note": "[Example O60]", "values": [{"measurement": "CDK2 % Inhibition At 0.03 μM", "setting": "CDK2/Cyclin A; 0.03 μM compound", "result": 24, "unit": "%"}, {"measurement": "CDK4 % Inhibition at 0.03 μM", "setting": "[1]; 0.03 μM compound, Table 2", "result": 12, "unit": "%"}, {"measurement": "HCT-116 % Inhibition at 0.25 μM", "setting": "HCT-116 cell line; HCT-116, Table 2", "result": 39, "unit": "%"}]}
